Test results taken from patent publication US8981094B2, “Piperidine/piperazine derivatives” (Janssen Pharmaceutica N.V., priority 2007, dated 2015).

Experiments:
human DGAT1 = molecular target: T1, human DGAT1 (Homo sapiens, UniProt O75907); test: Inhibition of DGAT1 activity, FlashPlate assay with DGAT1 membrane preparations and substrate micelles; type: biochemical; conditions: pIC50 = -logIC50, IC50 values expressed in M
T1 construct: FLAG (N); made in house; host or cells: SF9 insect cells (pFastBac baculovirus); total cell membranes
T1 sequence (O75907 1-488): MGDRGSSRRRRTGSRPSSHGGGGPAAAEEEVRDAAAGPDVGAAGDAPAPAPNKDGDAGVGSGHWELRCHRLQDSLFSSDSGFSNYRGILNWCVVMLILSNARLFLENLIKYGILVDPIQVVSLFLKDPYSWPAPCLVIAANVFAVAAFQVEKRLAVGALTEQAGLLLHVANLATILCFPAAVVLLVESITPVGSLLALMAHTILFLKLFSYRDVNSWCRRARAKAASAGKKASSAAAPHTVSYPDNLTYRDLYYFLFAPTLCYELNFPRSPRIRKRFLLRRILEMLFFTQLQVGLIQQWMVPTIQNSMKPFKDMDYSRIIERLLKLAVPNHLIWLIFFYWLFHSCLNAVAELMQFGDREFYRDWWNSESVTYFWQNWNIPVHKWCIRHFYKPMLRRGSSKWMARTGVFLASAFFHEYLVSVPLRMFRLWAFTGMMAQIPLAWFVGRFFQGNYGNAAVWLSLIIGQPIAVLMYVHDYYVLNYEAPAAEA
Method in brief: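 FLAG-tagged human DGAT1 membranes (expressed in Sf9 cells) were incubated 120 min at 37° C. in 50 mM Tris-HCl pH 7.4 with 150 mM MgCl2, 1 mM EDTA, 0.2% BSA, 50 μM DAG micelles (PC/PS) and 8.4 μM [^3H]-oleoylCoA. The reaction was stopped with N-ethylmaleimide and read as FlashPlate radioluminescence. Responses were normalized to enzyme/no-enzyme controls to fit dose-response curves.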

Row | SMILES | IC50 (human DGAT1) [nM] | melting point [°C]
1 | O=C(CCc1ccncc1)Nc1ccc(N2CCN(C(=O)Nc3c(Cl)cccc3Cl)CC2)cc1 [Compound 193] | 339 | 263 to 264
2 | O=C(CCCc1cccnc1)Nc1ccc(N2CCN(C(=O)Nc3c(Cl)cccc3Cl)CC2)cc1 [Compound 194] | 33.9 | 233 to 234
3 | CN(C)CCC(=O)Nc1ccc(N2CCN(C(=O)Nc3c(Cl)cccc3Cl)CC2)cc1 [Compound 196] | 6760 | 194 to 196
4 | O=C(CCCc1ccncc1)Nc1ccc(N2CCN(C(=O)Nc3c(Cl)cccc3Cl)CC2)cc1 [Compound 197] | 123 | 251 to 252
5 | O=C(CCc1cccnc1)Nc1ccc(N2CCN(C(=O)Nc3c(Cl)cccc3Cl)CC2)cc1 [Compound 198] | 229 | 260 to 261
6 | CN(C)CC(=O)Nc1ccc(N2CCN(C(=O)Nc3c(Cl)cccc3Cl)CC2)cc1 [Compound 200] | 3630 | 245 to 246
7 | O=C(CN1CCCC1)Nc1ccc(N2CCN(C(=O)Nc3c(Cl)cccc3Cl)CC2)cc1 [Compound 201] | 1950 | 214 to 216
8 | C=CC(=O)Nc1ccc(N2CCN(C(=O)Nc3c(Cl)cccc3Cl)CC2)cc1 [Compound 202] | 107 | 245 to 246
9 | COc1cc(CNC(=O)c2ccc(N3CCN(C(=O)Cc4c(Cl)cccc4Cl)CC3)cc2)cc(OC)c1 [Compound 225] | 9.55 | 212.29
10 | CCOC(=O)c1ccc(CCCCCNC(=O)c2ccc(N3CCN(C(=O)Nc4c(Cl)cc(CN5CCCC5)cc4Cl)CC3)cc2)cc1 [Compound 226] | 9.77 | 180.97
11 | COc1ccc(CNC(=O)c2ccc(N3CCN(C(=O)Nc4c(Cl)cc(CC(=O)N5CCN(C)CC5)cc4Cl)CC3)cc2)cc1 [Compound 228] | 19.1 | 220.01
12 | O=C(NCc1cccc2ccccc12)c1ccc(N2CCN(C(=O)Cc3c(Cl)cccc3Cl)CC2)cc1 [Compound 229] | 30.9 | 242.15
13 | COc1ccc(CNC(=O)c2ccc(N3CCN(C(=O)Cc4c(Cl)cccc4Cl)CC3)cc2)c(OC)c1 [Compound 230] | 42.7 | 180.99
14 | COc1ccc(CNC(=O)c2ccc(N3CCN(C(=O)Nc4c(Cl)cc(CN5CCCC5)cc4Cl)CC3)cc2)cc1 [Compound 232] | 46.8 | 222.04
15 | Cc1ccccc1CNC(=O)c1ccc(N2CCN(C(=O)Cc3c(Cl)cccc3Cl)CC2)cc1 [Compound 233] | 50.1 | 244.09
16 | O=C(NCc1cccc(N2CCCC2)c1)c1ccc(N2CCN(C(=O)Cc3c(Cl)cccc3Cl)CC2)cc1 [Compound 234] | 50.1 | 251.1
17 | O=C(NCc1ccc(-c2ccccn2)cc1)c1ccc(N2CCN(C(=O)Nc3c(Cl)cc(CN4CCCC4)cc3Cl)CC2)cc1 [Compound 236] | 60.3 | 217.37
18 | COc1ccc(CNC(=O)c2ccc(N3CCN(C(=O)Nc4c(Cl)cc(CN(C(C)C)C(C)C)cc4Cl)CC3)cc2)cc1 [Compound 240] | 81.3 | 208.87
19 | Cc1cc(Cl)c(CC(=O)N2CCN(c3ccc(C(=O)NCc4cccc(N5CCCC5)c4)cc3)CC2)c(Cl)n1 [Compound 242] | 129 | 172.73
20 | COc1ccc(CCNC(=O)c2ccc(N3CCN(C(=O)Nc4c(Cl)cc(CN5CCCC5)cc4Cl)CC3)cc2F)cc1 [Compound 246] | 151 | 235 to 237
21 | O=C(NCc1ccncc1)c1ccc(N2CCN(C(=O)Cc3c(Cl)cccc3Cl)CC2)cc1 [Compound 251] | 191 | 239.51
22 | COc1ccc(CNC(=O)c2ccc(N3CCN(C(=O)Nc4c(Cl)cc(CN5CCCC5)cc4Cl)CC3)cc2F)cc1 [Compound 255] | 339 | 176.5 to 178
23 | O=C(NCc1cccnc1)c1ccc(N2CCN(C(=O)Cc3c(Cl)cccc3Cl)CC2)cc1 [Compound 257] | 661 | 242.27
24 | O=C(NCc1ccco1)c1ccc(N2CCN(C(=O)Cc3c(Cl)cccc3Cl)CC2)cc1 [Compound 258] | 759 | 238.35
25 | C#CCNC(=O)c1ccc(N2CCN(C(=O)Cc3c(Cl)cccc3Cl)CC2)cc1 [Compound 259] | 1350 | 247.07

Row | SMILES | IC50 (human DGAT1) [nM] | melting point [°C]
26 | CCOCCNC(=O)c1ccc(N2CCN(C(=O)Cc3c(Cl)cccc3Cl)CC2)cc1 [Compound 262] | 3240 | 175.07
27 | COc1ccc(CN(C)C(=O)c2ccc(N3CCN(C(=O)Nc4c(Cl)cc(CN5CCCC5)cc4Cl)CC3)cc2)cc1 [Compound 263] | 3720 | 132.84
28 | O=C(NCC1CCOCC1)c1ccc(N2CCN(C(=O)Nc3c(Cl)cc(CN4CCCC4)cc3Cl)CC2)cc1 [Compound 264] | 3980 | 223.77
29 | CN(Cc1ccccc1)C(=O)c1ccc(N2CCN(C(=O)Nc3c(Cl)cc(CN4CCCC4)cc3Cl)CC2)cc1 [Compound 266] | 6170 | 161.47
30 | COc1ccc(CC(=O)Nc2ccc(N3CCN(C(=O)Nc4c(Cl)cc(CN5CCN(S(C)(=O)=O)CC5)cc4Cl)CC3)cc2)cc1 [Compound 268] | 1.7 | 224.69
31 | CC(O)c1cc(Cl)c(NC(=O)N2CCC(c3ccc(NC(=O)CCCc4ccccc4)cc3)CC2)c(Cl)c1 (centres unmarked) [Compound 273] | 3.72 | 203 to 204
32 | O=C(CCCc1ccccc1)Nc1ccc(C2CCN(C(=O)Nc3c(Cl)cc(CO)cc3Cl)CC2)cc1 [Compound 276] | 4.27 | 198 to 199
33 | Cc1ccc(NCCC(=O)Nc2ccc(N3CCN(C(=O)Nc4c(Cl)cc(O)cc4Cl)CC3)cc2)c(C)c1 [Compound 280] | 6.76 | 227 to 228
34 | C=CCN(CC(=O)Nc1ccc(N2CCN(C(=O)Nc3c(Cl)cc(OC)cc3Cl)CC2)cc1)Cc1ccc(C)cc1C [Compound 281] | 7.24 | 149 to 150
35 | COc1ccc(COC(=O)CCCC(=O)Nc2ccc(N3CCN(C(=O)Nc4c(Cl)cc(CN5CCCCC5)cc4Cl)CC3)cc2)cc1 [Compound 285] | 9.12 | 178 to 179
36 | CC(c1cc(Cl)c(NC(=O)N2CCN(c3ccc(NC(=O)CCCc4ccccc4)cc3)CC2)c(Cl)c1)N(C)C (centres unmarked) [Compound 288] | 10 | 191.86
37 | O=C(CCNc1ccccc1Cl)Nc1ccc(N2CCN(C(=O)Nc3c(Cl)cccc3Cl)CC2)cc1 [Compound 289] | 10.2 | 244 to 245
38 | O=C(CCCC(=O)OCc1ccccc1)Nc1ccc(N2CCN(C(=O)Nc3c(Cl)cc(CN4CCCCC4)cc3Cl)CC2)cc1 [Compound 292] | 10.7 | 180 to 181
39 | Cc1ccc(NCCC(=O)Nc2ccc(N3CCN(C(=O)Nc4c(Cl)cccc4Cl)CC3)cc2)c(C)c1 [Compound 298] | 17.4 | 241 to 242
40 | COc1ccc(CC(=O)Nc2ccc(N3CCN(C(=O)Nc4c(Cl)cc(C[N+]5([O-])CCCC5)cc4Cl)CC3)cc2)cc1 [Compound 299] | 19.1 | 168.24
41 | O=C(CCCc1ccccc1)Nc1ccc(C2CCN(C(=O)Nc3c(Cl)cc(C(=O)O)cc3Cl)CC2)cc1 [Compound 301] | 20.9 | 152 to 153
42 | O=C(COC(=O)c1ccccc1)Nc1ccc(N2CCN(C(=O)Nc3c(Cl)cc(CN4CCCC4)cc3Cl)CC2)cc1 [Compound 304] | 21.9 | 243.74
43 | COc1ccc(CC(=O)Nc2ccc(N3CCN(C(=O)Nc4c(Cl)cc(C(=O)N5CCN(C)CC5)cc4Cl)CC3)cc2)cc1 [Compound 305] | 24.5 | 253.39
44 | O=C(CC(=O)OCc1ccccc1)Nc1ccc(N2CCN(C(=O)Nc3c(Cl)cc(CN4CCCC4)cc3Cl)CC2)cc1 [Compound 307] | 29.5 | 206.22
45 | Cc1ccc(CNCC(=O)Nc2ccc(N3CCN(C(=O)Nc4c(Cl)cc(O)cc4Cl)CC3)cc2)c(C)c1 [Compound 311] | 43.7 | 212 to 213
46 | COc1ccc(CC(=O)Nc2ccc(N3CCN(C(=O)Oc4c(Cl)cc(CN(C)C)cc4Cl)CC3)cc2)cc1 [Compound 312] | 44.7 | 182.46
47 | COc1ccc(CC(=O)Nc2ccc(N3CCN(C(=O)Nc4c(Cl)cc(CC[N+](C)(C)C)cc4Cl)CC3)cc2)cc1 [Compound 317] | 63.1 | 248.28
48 | CCOC(=O)CCCC(=O)Nc1ccc(N2CCN(C(=O)Nc3c(Cl)cc(CN4CCCCC4)cc3Cl)CC2)cc1 [Compound 318] | 64.6 | 211 to 212
49 | CC(=O)c1cc(Cl)c(NC(=O)N2CCC(c3ccc(NC(=O)CCCc4ccccc4)cc3)CC2)c(Cl)c1 [Compound 319] | 66.1 | 160 to 161
